# According to US20240299345A1, “GINKGOLIDE B AND ITS DERIVATIVES FOR INHIBITING AND/OR REVERSING AGING” (CHINA MEDICAL UNIVERSITY, priority 2023, published 2024):
# Assays:
# [1] = system: aged M1 macrophages, MPD C2C12, MPD C2C12-derived myotubes; assay: Inflammatory cytokine expression in aged cells under culture conditions; type: cell-based, mouse; conditions: GB 5 mg/L for 48 hr
# Excerpt: C2C12 myoblast cell line (#CRL-1772TM, ATCC, Manassas, VA, USA) was expanded in high-glucose DMEM (#D7777, Sigma-Aldrich) with 10% FBS (#10270106, Gibco, Waltham, MA, USA) and 1% PSG (#10378016, Gibco). Passage 15-20 C2C12 was considered as multiple population doublings C2C12. Subconfluent C2C12 was differentiated to myotubes by myogenic induction medium, high-glucose DMEM (Sigma-Aldrich) containing 2% horse scrum (#16050122, Gibco) for 5 days. Aged bone-marrow monocytes were isolated from 20-month-old female C57BL/6 mice and then differentiated into macrophages in RPMI 1640 (#11875085, Gibco) supplemented with 10% FBS and 20 ng/ml M-CSF (#315-02, PeproTech, Cranbury, NJ, USA). Inflammatory MI macrophages were induced by 45 ng/mL IFN-γ (#485-MI-100, R&D Systems, Minneapolis, MN, USA) +100 ng/mL LPS (#L4391, Sigma-Aldrich). The indicative cells were then treated with or without GB (5 mg/L) for 48 hr. […]
# (§1) RNAs were purified by using the TRIzol® (#15596018, Invitrogen) and chloroform method (#C7559, Sigma-Aldrich) and reversed transcribed using High-Capacity cDNA Reverse Transcription Kit (#4368814, Applied Biosystems, Foster City, CA, USA). The quantitative RT-PCR was conducted with universal probe system (Roche Life Science, Indianapolis, IN, USA) by using a QuantStudio™ 7 Flex Real-Time PCR System (Applied Biosystems) and was normalized by the expression of GAPDH.
# [2] = system: H2O2-induced senescent human MSCs; assay: H2O2-induced senescence in human MSCs; type: cell-based; conditions: GB 5 mg/L
# Excerpt: C2C12 myoblast cell line (#CRL-1772TM, ATCC, Manassas, VA, USA) was expanded in high-glucose DMEM (#D7777, Sigma-Aldrich) with 10% FBS (#10270106, Gibco, Waltham, MA, USA) and 1% PSG (#10378016, Gibco). Passage 15-20 C2C12 was considered as multiple population doublings C2C12. Subconfluent C2C12 was differentiated to myotubes by myogenic induction medium, high-glucose DMEM (Sigma-Aldrich) containing 2% horse scrum (#16050122, Gibco) for 5 days. Aged bone-marrow monocytes were isolated from 20-month-old female C57BL/6 mice and then differentiated into macrophages in RPMI 1640 (#11875085, Gibco) supplemented with 10% FBS and 20 ng/ml M-CSF (#315-02, PeproTech, Cranbury, NJ, USA). Inflammatory MI macrophages were induced by 45 ng/mL IFN-γ (#485-MI-100, R&D Systems, Minneapolis, MN, USA) +100 ng/mL LPS (#L4391, Sigma-Aldrich). The indicative cells were then treated with or without GB (5 mg/L) for 48 hr. Commercial human mesenchymal stem cells (MSCs)40 were cultured in MSC maintenance medium consisting of IMDM, 10% FBS (#10270106, Gibco), 10 ng/ml bFGF (#233-FB, R&D Systems) and 1% PSG (#10378016, Gibco). To induce senescence, we treated cells at approximately 50% confluence with 200 μM H2O2 for 2 hr and then washed cells by PBS two times to remove H202. The cells were treated with GB (5 mg/L) or vehicle in fresh growth medium and subjected to the subsequent experiments at indicative time point.
# Cell viability was measured by a CCK-8 kit (#ab228554, Abcam), and cell proliferation was determined by manually cell counting with hemocytometer. Senescence-associated β-galactosidase activity was determined by senescence-associated β-galactosidase staining kit (#9860, Cell Signaling Technology, Danvers, Massachusetts, USA) according to the manufacturer's instructions. Senescence-associated heterochromatin foci were visualized by DAPI staining.
# as §1
# [3] = system: 20-month-old aged female C57BL/6 mice; assay: Physical functional analysis (grip strength, rotarod, hanging, balance beam) in aged mice; type: in vivo, mouse
# Procedure: Forelimb grip strength was measured by a grip strength meter (Muromachi Kikai Co., Tokyo, Japan). Each mouse performed five trials for force measurement, and the values were normalized to body and recorded. A rotarod test was carried out by using the rotarod treadmill (Singa Technology Corporation, Taoyuan City, Taiwan). The speed was adjusted to 4 rpm for 4 sec, 10 rpm for 10 sec, 20 rpm for 20 sec, and then 40 rpm until the mice fell. Mice were familiarized with the rotarod and balance beam by running 5 min for three consecutive days before the onset of experimentation. During the experiment, each mouse performed four trials, and the average time that each rodent was able to stay on top of the rotarod treadmill was recorded. The balance beam test was used to assess subtle motor coordination and balance. After initial training, mice were given four consecutive trials where they were required to cross 60 cm of a round beam (14 mm in diameter). The time for crossing the beam and the number of hind-feet slip were recorded. Hanging endurance was determined by Kondziella's inverted hanging screen test. Mice were putted at the center of grasped wire screen (bar thickness, 2 mm; mesh, 10 mm). After inverting the wire screen, the time of sustained limb tension on the screen were recorded. A fixed maximum hanging limit of 600 seconds was used. Each trial was repeated three times at 30-min interval, the mean values were recorded.
# [4] = system: circulating inflammatory cytokines and chemokines; assay: Serum 40-plex cytokine/chemokine panel in aged mice; type: in vivo, mouse; conditions: of 40 detected, GB 2 months
# Excerpt: Serum was collected by cardiac puncture upon sacrifice.
# [5] = system: skeletal muscle of aged C57BL/6 mice; assay: Muscle histology (fiber type, oil red O, Masson's trichrome, central nuclei) and vascular network in aged mice; type: in vivo, mouse; conditions: GB 2 months
# Procedure: Body composition was measured by Minispec LF50 TD-NMR (Bruker, MA, USA) based on nuclear magnetic resonance methods. Briefly, mice were anesthetized for the duration of the procedure by 3% isoflurane (Zoctis, London, UK) and placed in the scanning chamber in the prone position, with the limbs and tail stretched away from the body. The analysis would be conducted by default software per manufacturer's protocol. The vascular networks […] were quantified by in vivo micro-computed tomography (U-CT, Milabs, Netherlands). Briefly, mice intravenously received 150 μL ExiTron™ nano 12000 (#130-095-698, Miltonic Biotec GmbH, Bergisch Gladbach, Germany), and then mice were anesthetized with isoflurane before being positioned on the scanning chamber. After scanning, the blood vessels were analyzed by a curved multiplanar reconstruction algorithm by using Osirix software (Bernex, Switzerland).
# [6] = system: kidney, heart, spleen and liver in aged mice; assay: Organ pathology, blood chemistry and tolerability after 2 months of GB in mice
# Procedure: All animals were purchased from Laboratory Animal Services Centre, the Chinese University of Hong Kong, ad libitum fed the standard diet (#5V0f, LabDiet, St. Louis, MO, USA), and housed at specific-pathogen-free and humidity-controlled conditions under a 12 light: 12 dark photoperiod with temperature at 20-22° C. Animals were kept up to five per cage and were randomly assigned to control and experimental groups in all experiments. […] For the short-term experiment, 3-(young), 6-(adult) and 20-month-old (aged) female C57BL/6 mice were administered 12 mg/kg body weight GB (#G6910, Sigma-Aldrich, St. Louis, MO, USA) or vehicle daily by oral gavage for two months. […] GB was diluted to the appropriate concentration in 100 μL of sterile PBS (#10378016, Gibco, Waltham, MA, USA).
# Tissue samples were harvested and embedded in paraffin or in OCT (#4583, Sakura Finetek USA, Torrance, CA, USA). For paraffin-embedded samples, 10 μm sections were deparaffinized by xylene and alcohol gradient treatment and were then hydrated by distilled water and processed for heat-induced antigen retrieval with antigen retrieval solution at 70° C. for 1.5 hours before staining. For OCT-embedded samples, 10 μm sections were hydrated by distilled water before staining. Hematoxylin and cosin staining (#MHS16 and #HT110116 Sigma-Aldrich), oil red O staining (#00625, Sigma-Aldrich), and Masson's trichrome staining (#HT15, Sigma-Aldrich) were used to assess the histology, lipid droplet, and collagen deposition. For immunohistochemical staining, antigen-retrieval samples were blocked with 5% bovine serum albumin (BSA) (#A9647, Sigma-Aldrich) for 1 hour at room temperature and incubated with primary antibodies overnight at 4° C., followed by a ready-to-use IHC/ICC Kit (#K405, BioVision, Milpitas, CA, USA) at room temperature. The samples were then suspended with double-distilled water and then stained with hematoxylin. For immunocytochemical staining, samples were blocked with 5% BSA (Sigma-Aldrich) for 1 hour at room temperature and incubated with primary antibodies overnight at 4° C., then washed with PBS for ten minutes, and then incubated with secondary antibody for 1 hour at room temperature, then washed with PBS three times for ten minutes.
# [7] = system: 20-month-old female C57BL/6 mice; assay: Lifespan and cancer incidence analysis, lifelong GB from 20 months of age; type: in vivo, mouse
# Excerpt: The mice were not involved in any experiments to maximally reduce potential interference and stress to animals.
structure (smiles),measurement,setting,value
"CC1C(=O)OC2C(O)C34C5CC(C(C)(C)C)C36C(OC(=O)C6O)OC4(C(=O)O5)C12O (stereo not drawn) [GB, Ginkgolide B]",inflammatory cytokines in aged cells under culture conditions,[1],downregulated
same,cellular morphology,[2],restored the spindle sharp from flattened and enlarged morphology
same,expression of senescence markers,[2],reduced
same,proliferation,[2],promoted
same,senescence-associated heterochromatin foci and nucleus size,[2],reduced
same,senescence-associated β-galactosidase (SA-β-Gal) staining,[2]; p=0.0007,reduced
same,cellular viability (CCK8),[2]; p=0.0026,promoted
same,grip strength,"[3]; GB 12 mg/kg daily oral 2 months vs vehicle-aged, p<0.01",higher
same,duration of hanging,"[3]; GB 2 months vs vehicle-aged, p<0.0001",prolonged duration
same,duration on the rotarod,"[3]; GB 2 months vs vehicle-aged, p<0.05",prolonged duration
same,balance beam: latency to cross,"[3]; GB 2 months, p<0.001",decreased
same,balance beam: number of foot slips,"[3]; GB 2 months, p<0.001",reduced
same,number of circulating proteins significantly altered,[4],12
same,capillary density,"[5]; CD31 staining of quadriceps, p=0.0492",dramatically enlarges
same,aging-related changes in fiber-type switching,"[5]; GA muscle, in particular type 1 and 2B myofibers",partially reversed
same,number of central myonuclei in aged myofibers,[5]; p=0.0011,reduced
same,collagen deposition in muscle,"[5]; Masson's trichrome, GA muscle, p=0.0004",reduced
same,deep femoral artery,"[5]; micro-CT, p=0.012",dramatically enlarges
same,intramuscular lipid infiltration,"[5]; oil red O, GA muscle, p=0.01",reduced
same,collagen deposition in multiple organs,"[6]; Masson's trichrome, aged mice",reduced
same,severe acute toxicity,"[6]; adult, aged or OVX mice, none of the treated mice dying during the two months of GB administration",did not find severe acute toxicity
same,compensatory hypertrophy of the kidney and heart,"[6]; aged mice, GB 2 months",decreased
same,aging-related compensatory hypertrophy of glomerulus,"[6]; aged mice, histopathology, p<0.0001",reduced
same,aging-related compensatory hypertrophy of cardiomyocytes,"[6]; aged mice, histopathology, p=0.0018",reduced
same,reduction of aging-related hepatic lipid accumulation,"[6]; aged mice, p<0.0001",3.8 fold
same,decrease in white pulp and white pulp/red pulp ratio in aged spleen,"[6]; aged mice, p<0.0001 and p=0.0143",ameliorated
same,number of hepatic microgranulomas,"[6]; aged mice, p=0.0031",decreased
same,age at 50% cumulative cancer incidence,"[7]; GB group, vehicle 891 days, p=0.0002 log-rank",1025 days
same,aging-associated mortality,[7]; GB vs vehicle aged mice,delayed
same,hazard ratio by Mantel-Haenszel,[7]; GB vs vehicle aged mice,0.4577
same,hazard ratio by log-rank test,[7]; GB vs vehicle aged mice,0.3526
same,macroscopic tumors detected by necropsy,[7]; GB-aged mice compared with vehicle group,less macroscopic tumors
same,median lifespan extension,"[7]; from the inception of GB administration at 20 months, 12 mg/kg daily, p=0.0002 log-rank, 0.0064 Gehan-Breslow-Wilcoxon",30%
same,lifespan extension (summary statement),[7]; lifelong oral GB in mice starting from 20 months old,20%
same,median lifespan extensions by tumor incidence,[7]; p=0.0011 and 0.03 by log-rank test,observed in both tumor and non-tumor cohorts
same,extension of mean maximal lifespans of the 10% and 20% longest-lived mice,[7]; p=0.0286 and 0.0006,around 55 days
